Data as given in patent US20070128217A1 (priority 2003, published 2007).

Assays:
[1] = system: rabbit serum obtained by immunizing a rabbit with the SARS-CoV strain Frankfurt 1; type: binding; set-up: Binding of a rabbit serum to linear peptides / Binding of a rabbit serum to looped peptides / Rabbit serum linear peptides / Rabbit serum looped peptides / Binding of a rabbit serum to linear peptides of protein N of SARS-CoV Urbani (Rabbit serum linear peptides) / Binding of a rabbit serum to looped/cyclic peptides of protein N of SARS-CoV Urbani (Rabbit serum looped peptides): unit not given here
[2] = system: control sera (pooled serum of ten healthy LUMC hospital workers; commercial negative donor pooled serum from the Dutch bloodbank); type: binding, human; set-up: Binding of Control serum LUMC to linear peptides / Binding of Control serum Blood-bank to linear peptides / Binding of Control serum LUMC to looped peptides / Binding of Control Serum Blood-Bank to Looped peptides / Binding of Control serum LUMC to linear peptides of the protein M of SARS-CoV Urbani / Binding of Control serum Blood-bank to linear peptides of the protein M of SARS-CoV Urbani / Binding of Control serum LUMC to looped peptides of the protein M of SARS-CoV Urbani / Binding of Control Serum Blood-Bank to Looped peptides of the protein M of SARS-CoV Urbani: unit not given here
[3] = system: antibodies in sera from SARS patients (sera 1a, 1b, 2, 6, 37, 62, London, SARS-yellow, SARS-green); type: binding, human; set-up: Binding of serum 6 to linear peptides of protein X1 of SARS-CoV Urbani / Binding of serum 37 to linear peptides of protein X1 of SARS-CoV Urbani / Binding of serum 6 to looped/cyclic peptide (PEPSCAN-ELISA) / Binding of serum 37 to looped/cyclic peptide (PEPSCAN-ELISA) / Binding of serum 37 to looped/cyclic peptides of protein X1 of SARS-CoV Urbani / Binding of serum 6 to linear peptides of protein X2 / Binding of serum 37 to linear peptides of protein X2 / Binding of serum 37 to looped/cyclic peptides of protein X2 of SARS-CoV Urbani / Binding of serum 6 to linear peptides of protein M of SARS-CoV Urbani / Binding of serum 37 to linear peptides of protein M of SARS-CoV Urbani / Binding of serum 6 to looped/cyclic peptides of protein M of SARS-CoV Urbani / Binding of serum 37 to looped/cyclic peptides of protein M of SARS-CoV Urbani / Binding of serum 6 to linear peptides of protein X3 of SARS-CoV Urbani / Binding of serum 37 to linear peptides of protein X3 of SARS-CoV Urbani / Binding of serum 37 to looped/cyclic peptides of protein X3 of SARS-CoV Urbani / Binding of serum 6 to linear peptides of protein X4 of SARS-CoV Urbani / Binding of serum 37 to linear peptides of protein X4 of SARS-CoV Urbani / Binding of serum 37 to looped/cyclic peptides of protein X4 of SARS-CoV Urbani / Binding of serum 6 to linear peptides of protein X5 of SARS-CoV Urbani / Binding of serum 37 to linear peptides of protein X5 of SARS-CoV Urbani / Binding of serum 37 to looped/cyclic peptides of protein X5 of SARS-CoV Urbani / Binding of serum 6 to linear peptides of protein N of SARS-CoV Urbani / Binding of serum 37 to linear peptides of protein N of SARS-CoV Urbani / Binding of serum 6 to linear peptide (PEPSCAN-ELISA) / Binding of serum 1a to looped/cyclic peptides of protein N of SARS-CoV Urbani / Binding of serum 1b to looped/cyclic peptides of protein N of SARS-CoV Urbani / Binding of serum 2 to looped/cyclic peptides of protein N of SARS-CoV Urbani / Binding of serum 6 to looped/cyclic peptides of protein N of SARS-CoV Urbani / Binding of serum 37 to looped/cyclic peptides of protein N of SARS-CoV Urbani / Binding of serum 62 to looped/cyclic peptides of protein N of SARS-CoV Urbani / Binding of serum London to looped/cyclic peptides of protein N of SARS-CoV Urbani / Binding of serum SARS-green to looped/cyclic peptides of protein N of SARS-CoV Urbani: unit not given here

Sequence | Binding of Control Serum Blood-Bank to Looped peptides [2] | Binding of Control serum Blood-bank to linear peptides [2] | Binding of Control serum LUMC to linear peptides [2] | Binding of Control serum LUMC to looped peptides [2] | Binding of serum 1a to linear peptides of protein X4 of SARS-CoV Urbani [3] | Binding of serum 1a to looped/cyclic peptides of protein X4 of SARS-CoV Urbani [3] | Binding of serum 1b to linear peptides of protein X4 of SARS-CoV Urbani [3] | Binding of serum 1b to looped/cyclic peptides of protein X4 of SARS-CoV Urbani [3] | Binding of serum 2 to linear peptides of protein X4 of SARS-CoV Urbani [3] | Binding of serum 2 to looped/cyclic peptides of protein X4 of SARS-CoV Urbani [3] | Binding of serum 6 to linear peptides of protein X4 of SARS-CoV Urbani [3] | Binding of serum 6 to looped/cyclic peptides of protein X4 of SARS-CoV Urbani [3] | Binding of serum 37 to linear peptides of protein X4 of SARS-CoV Urbani [3] | Binding of serum 37 to looped/cyclic peptides of protein X4 of SARS-CoV Urbani [3] | Binding of serum 62 to linear peptides of protein X4 of SARS-CoV Urbani [3] | Binding of serum 62 to looped/cyclic peptides of protein X4 of SARS-CoV Urbani [3] | Binding of serum London to linear peptides of protein X4 of SARS-CoV Urbani [3] | Binding of serum London to looped/cyclic peptides of protein X4 of SARS-CoV Urbani [3] | Binding of serum SARS-green to linear peptides of protein X4 of SARS-CoV Urbani [3] | Binding of serum SARS-green to looped/cyclic peptides of protein X4 of SARS-CoV Urbani [3] | also measured
YSPLFLIVAALVFLI | 0.4 | 0.6 | 0.5 | 0.7 | 0.7 | 0.7 | 0.3 | 0.3 | 0.5 | 0.6 | 0.5 | 0.4 | 0.7 | 0.6 | 0.7 | 0.6 | 0.7 | 0.3 | 0.5 | 0.6 | Rabbit serum linear peptides [1]: 0.3; Rabbit serum looped peptides [1]: 0.5; Binding of serum SARS-yellow to linear peptides of protein X4 of SARS-CoV Urbani [3]: 0.4; Binding of serum SARS-yellow to looped/cyclic peptides of protein X4 of SARS-CoV Urbani [3]: 0.4
DYVVVHGYFTEVYYQ | 0.5 | 0.5 | 0.7 | 0.7 | – | – | – | – | – | – | – | – | – | – | – | – | – | – | – | – | Binding of a rabbit serum to linear peptides [1]: 0.1; Binding of a rabbit serum to looped peptides [1]: 0.6; Binding of serum 1a to linear peptides of protein X1 of SARS-CoV Urbani [3]: 0.6; Binding of serum 1a to looped/cyclic peptides of protein X1 of SARS-CoV Urbani [3]: 0.6; Binding of serum 1b to linear peptides of protein X1 of SARS-CoV Urbani [3]: 0.5; Binding of serum 1b to looped/cyclic peptides of protein X1 of SARS-CoV Urbani [3]: 0.5; Binding of serum 2 to linear peptides of protein X1 of SARS-CoV Urbani [3]: 0.4; Binding of serum 2 to looped/cyclic peptides of protein X1 of SARS-CoV Urbani [3]: 0.5; Binding of serum 6 to linear peptides of protein X1 of SARS-CoV Urbani [3]: 0.4; Binding of serum 6 to looped/cyclic peptides of protein X1 of SARS-CoV Urbani [3]: 0.3; Binding of serum 37 to linear peptides of protein X1 of SARS-CoV Urbani [3]: 0.6; Binding of serum 37 to looped/cyclic peptides of protein X1 of SARS-CoV Urbani [3]: 0.7; Binding of serum 62 to linear peptides of protein X1 of SARS-CoV Urbani [3]: 0.4; Binding of serum 62 to looped/cyclic peptides of protein X1 of SARS-CoV Urbani [3]: 0.7; Binding of serum London to linear peptides of protein X1 of SARS-CoV Urbani [3]: 0.2; Binding of serum London to looped/cyclic peptides of protein X1 of SARS-CoV Urbani [3]: 0.2; Binding of serum SARS-green to linear peptides of protein X1 of SARS-CoV Urbani [3]: 0.3; Binding of serum SARS-green to looped/cyclic peptides of protein X1 of SARS-CoV Urbani [3]: 0.3; Binding of serum SARS-yellow to linear peptides of protein X1 of SARS-CoV Urbani [3]: 0.3; Binding of serum SARS-yellow to looped/cyclic peptides of protein X1 of SARS-CoV Urbani [3]: 0.5
TYQLRARSVSPKLFI | 0.9 | 1.0 | 0.7 | 0.9 | 0.8 | 0.9 | 0.6 | 0.7 | 0.7 | 0.8 | 0.9 | 1.3 | 0.8 | 0.6 | 0.9 | 0.8 | 0.9 | 1.4 | 0.7 | 0.2 | Recognition of the peptide by the rabbit serum [1]: recognized; Binding of serum SARS-yellow to linear peptides of protein X4 of SARS-CoV Urbani [3]: 0.6; Binding of serum SARS-yellow to looped/cyclic peptides of protein X4 of SARS-CoV Urbani [3]: 0.9
